# Patent publication US20080207708A1, “Oxazole and Thiazole Compounds and Their Use in the Treatment of Pge2 Mediated Disorders” (GLAXO GROUP LIMITED, priority 2005, published 2008)
# Target: T1, EP1 receptors (Homo sapiens, UniProt P34995)
# T1 sequence (P34995 1-402): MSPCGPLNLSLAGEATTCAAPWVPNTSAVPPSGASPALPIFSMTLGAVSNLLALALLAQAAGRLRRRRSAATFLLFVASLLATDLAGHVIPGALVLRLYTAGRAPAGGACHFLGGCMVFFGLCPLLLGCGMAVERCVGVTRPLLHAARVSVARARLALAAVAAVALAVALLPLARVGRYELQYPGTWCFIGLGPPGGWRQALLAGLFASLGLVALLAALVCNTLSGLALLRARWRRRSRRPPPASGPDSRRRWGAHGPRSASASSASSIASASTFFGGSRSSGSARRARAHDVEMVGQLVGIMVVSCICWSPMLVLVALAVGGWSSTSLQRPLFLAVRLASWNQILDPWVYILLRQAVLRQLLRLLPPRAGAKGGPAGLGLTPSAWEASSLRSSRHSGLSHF
# Test: Binding assay for the human prostanoid EP1 receptor (competition with [3H]-PGE2)
# Parameters: expressed in transfected cells; host or cells: CHO-K1 cells, membrane fraction
# Details: [3H]-PGE2 competition; averages of a number of experiments; read-out: pIC50 value, binding assay for the human prostanoid EP1 receptor (converted)
# Experimental: Competition assay using [^3H]-PGE2.
# Compound potencies are determined using a radioligand binding assay. In this assay compound potencies are determined from their ability to compete with tritiated prostaglandin E2 ([^3H]-PGE2) for binding to the human EP1 receptor.
# This assay utilises Chinese hamster ovary-K1 (CHO-K1) cells into which a stable vector containing the EP1 cDNA has previously been transfected. Cells are cultured in suitable flasks containing culture medium such as DMEM:F-12 supplemented with 10% v/v foetal calf serum, 2 mM L-glutamine, 0.25 mg/ml geneticin, 10 μg/ml puromycin and 10 μM indomethacin.
# Cells are detached from the culture flasks by incubation in calcium and magnesium free phosphate buffered saline containing 1 mM disodium ethylenediaminetetraacetic acid (Na2EDTA) and 10 μM indomethacin for 5 min. The cells are isolated by centrifugation at 250×g for 5mins and suspended in an ice cold buffer such as 50 mM Tris, 1 mM Na2EDTA, 140 mM NaCl, 10 μM indomethacin (pH 7.4). The cells are homogenised using a Polytron tissue disrupter (2×10 s burst at full setting), centrifuged at 48,000×g for 20mins and the pellet containing the membrane fraction is washed (optional) three times by suspension and centrifugation at 48,000×g for 20mins. The final membrane pellet is suspended in an assay buffer such as 10 mM 2-[N-morpholino]ethanesulphonic acid, 1 mM Na2EDTA, 10 mM MgCl2 (pH 6). Aliquots are frozen at […] until required.
# For the binding assay the cell membranes, competing compounds and [^3H]-PGE2 (3 nM final assay concentration) are incubated in a final volume of 100 μl for 30 min at 30° C. All reagents are prepared in assay buffer. Reactions are terminated by rapid vacuum filtration over GF/B filters using a Brandell cell harvester. The filters are washed with ice cold assay buffer, dried and the radioactivity retained on the filters is measured by liquid scintillation counting in Packard TopCount scintillation counter.
# The data are analysed using non linear curve fitting techniques to determine the concentration of compound producing 50% inhibition of specific binding (IC50).
row,SMILES,IC50 [nM]
1,"O=C(O)c1csc(Cc2cc(C(F)(F)F)ccc2OCc2cccc(F)c2F)n1 [Example 34, Sodium 2-{[2-{[(2,3-difluorophenyl)methyl]oxy}-5-(trifluoromethyl)phenyl]methyl}-1,3-thiazole-4-carboxylate]",≤ 31.6
2,"O=C(O)c1csc(Cc2cc(C(F)(F)F)ccc2OCc2ccc(F)c(F)c2F)n1 [Example 35, Sodium 2-{[5-(trifluoromethyl)-2-{[(2,3,4-trifluorophenyl)methyl]oxy}phenyl)methyl]-1,3-thiazole-4-carboxylate]",≤ 1000
3,"O=C(O)c1csc(Cc2cc(C(F)(F)F)ccc2OCc2cc(F)c(F)cc2F)n1 [Example 36, Sodium 2-[(5-(trifluoromethyl)-2-{[(2,4,5-trifluorphenyl)methyl]oxy}phenyl)methyl]-1,3-thiazole-4-carboxylate]",≤ 31.6
4,"CCCOc1ccc(C(F)(F)F)cc1Cc1nc(C(=O)O)cs1 [Example 37, Sodium 2-{[2-(propyloxy)-5-(trifluoromethyl)phenyl]methyl}-1,3-thiazole-4-carboxylate]",≤ 31.6
5,"CCCCOc1ccc(C(F)(F)F)cc1Cc1nc(C(=O)O)cs1 [Example 38, Sodium 2-{[2-(butyloxy)-5-(trifluoromethyl)phenyl]methyl}-1,3-thiazole-4-carboxylate]",≤ 1000
6,"O=C(O)c1csc(Cc2cc(C(F)(F)F)ccc2OCC2CC2)n1 [Example 39, Sodium 2-{[2-[(cyclopropylmethyl)oxy]-5-(trifluoromethyl)phenyl]methyl}-1,3-thiazole-4-carboxylate]",≤ 31.6
7,"CCCCCOc1ccc(C(F)(F)F)cc1Cc1nc(C(=O)O)cs1 [Example 40, Sodium 2-{[2-(pentyloxy)-5-(trifluoromethyl)phenyl]methyl}-1,3-thiazole-4-carboxylate]",≤ 1000
8,"CC(C)CCOc1ccc(C(F)(F)F)cc1Cc1nc(C(=O)O)cs1 [Example 41, Sodium 2-{[2-[(3-methylbutyl)oxy]-5-(trifluoromethyl)phenyl]methyl}-1,3-thiazole-4-carboxylate]",≤ 31.6
9,"O=C(O)c1csc(Cc2cc(C(F)(F)F)ccc2OCC2CCCCC2)n1 [Example 42, Sodium 2-{[2-[(cyclohexylmethyl)oxy]-5-(trifluoromethyl)phenyl]methyl}-1,3-thiazole-4-carboxylate]",≤ 1000
10,"O=C(O)c1csc(Cc2cc(C(F)(F)F)ccc2OCC2CCC2)n1 [Example 43, Sodium 2-{[2-[(cyclobutylmethyl)oxy]-5-(trifluoromethyl)phenyl]methyl}-1,3-thiazole-4-carboxylate]",≤ 31.6
11,"CC(C)COc1ccc(C(F)(F)F)cc1Cc1nc(C(=O)O)cs1 [Example 44, Sodium 2-{[2-[(2-methylpropyl)oxy]-5-(trifluoromethyl)phenyl]methyl}-1,3-thiazole-4-carboxylate]",≤ 31.6
12,"O=C(O)c1csc(Cc2cc(C(F)(F)F)ccc2OCC2CCCC2)n1 [Example 45, Sodium 2-{[2-[(cyclopentylmethyl)oxy]-5-(trifluoromethyl)phenyl]methyl}-1,3-thiazole-4-carboxylate]",≤ 31.6
13,"O=C(O)Cc1csc(-c2cc(Cl)ccc2OCc2ccccc2F)n1 [Example 62, Sodium [2-(5-chloro-2-{[(2-fluorophenyl)methyl]oxy}phenyl)-1,3-thiazol-4-yl]acetate]",≤ 1000
14,"O=C(O)Cc1csc(-c2cc(Cl)ccc2OCc2ccc(F)cc2F)n1 [Example 63, Sodium [2-(5-chloro-2-{[(2,4-difluorophenyl)methyl]oxy}phenyl)-1,3-thiazol-4-yl]acetate]",≤ 1000
15,"O=C(O)Cc1csc(-c2cc(Cl)ccc2OCc2c(F)cc(F)cc2F)n1 [Example 64, Sodium [2-(5-chloro-2-{[(2,4,6-trifluorophenyl)methyl]oxy}phenyl)-1,3-thiazol-4-yl]acetate]",≤ 1000
16,"O=C(O)Cc1csc(-c2cc(Cl)ccc2OCc2ccc(Cl)cc2F)n1 [Example 65, Sodium [2-(5-chloro-2-{[(4-chloro-2-fluorophenyl)methyl]oxy}phenyl)-1,3-thiazol-4-yl]acetate]",≤ 31.6
17,"O=C(O)Cc1csc(-c2cc(Cl)ccc2OCc2ccc(F)cc2Cl)n1 [Example 66, Sodium [2-(5-chloro-2-{[(2-chloro-4-fluorophenyl)methyl]oxy}phenyl)-1,3-thiazol-4-yl]acetate]",≤ 1000

# Second part, the molecule after the results:
row,IC50 [nM],SMILES
1,≤ 31.6,"O=C(O)c1csc(Cc2cc(C(F)(F)F)ccc2OCc2ccc(F)cc2Cl)n1 [Example 33, Sodium 2-{[2-{[(2-chloro-4-fluorophenyl)methyl]oxy}-5-(trifluoromethyl)phenyl]methyl}-1,3-thiazole-4-carboxylate]"
2,≤ 31.6,"O=C(O)c1csc(Cc2cc(Br)ccc2OCc2ccccc2F)n1 [Example 51, Sodium 2-[(5-bromo-2-{[(2-fluorophenyl)methyl]oxy}phenyl)methyl]-1,3-thiazole-4-carboxylate]"
3,≤ 31.6,"O=C(O)c1csc(Cc2cc(Br)ccc2OCc2ccc(F)cc2)n1 [Example 52, Sodium 2-[(5-bromo-2-{[(4-fluorophenyl)methyl]oxy}phenyl)methyl]-1,3-thiazole-4-carboxylate]"
4,≤ 31.6,"O=C(O)c1csc(Cc2cc(Br)ccc2OCc2ccc(F)cc2F)n1 [Example 53, Sodium 2-[(5-bromo-2-{[(2,4-difluorophenyl)methyl]oxy}phenyl)methyl]-1,3-thiazole-4-carboxylate]"
5,≤ 31.6,"O=C(O)c1csc(Cc2cc(Br)ccc2OCc2ccc(Br)cc2)n1 [Example 54, Sodium 2-[(5-bromo-2-{[(4-bromophenyl)methyl]oxy}phenyl)methyl]-1,3-thiazole-4-carboxylate]"
6,≤ 1000,"O=C(O)c1csc(Cc2cc(Br)ccc2OCc2c(F)cc(F)cc2F)n1 [Example 55, Sodium 2-[(5-bromo-2-{[(2,4,6-trifluorophenyl)methyl]oxy}phenyl)methyl]-1,3-thiazole-4-carboxylate]"
7,≤ 31.6,"O=C(O)c1csc(Cc2cc(Br)ccc2OCc2ccc(Cl)cc2)n1 [Example 56, Sodium 2-[(5-bromo-2-{[(4-chlorophenyl)methyl]oxy}phenyl)methyl]-1,3-thiazole-4-carboxylate]"
8,≤ 31.6,"O=C(O)c1csc(Cc2cc(Br)ccc2OCc2ccccc2)n1 [Example 57, Sodium 2-({5-bromo-2-[(phenylmethyl)oxy]phenyl}methyl)-1,3-thiazole-4-carboxylate]"
9,≤ 31.6,"O=C(O)c1csc(Cc2cc(Br)ccc2OCc2cc(F)c(F)cc2F)n1 [Example 58, Sodium 2-[(5-bromo-2-{[(2,4,5-trifluorophenyl)methyl]oxy}phenyl)methyl]-1,3-thiazole-4-carboxylate]"
10,≤ 31.6,"O=C(O)c1csc(Cc2cc(Br)ccc2OCc2c(F)ccc(F)c2F)n1 [Example 59, Sodium 2-[(5-bromo-2-{[(2,3,6-trifluorophenyl)methyl]oxy}phenyl)methyl]-1,3-thiazole-4-carboxylate]"
11,≤ 31.6,"O=C(O)c1csc(Cc2cc(Br)ccc2OCc2ccc(Cl)cc2F)n1 [Example 60, Sodium 2-[(5-bromo-2-{[(4-chloro-2-fluorophenyl)methyl]oxy}phenyl)methyl]-1,3-thiazole-4-carboxylate]"
12,≤ 31.6,"O=C(O)c1csc(Cc2cc(Br)ccc2OCc2ccc(F)cc2Cl)n1 [Example 61, Sodium 2-[(5-bromo-2-{[(2-chloro-4-fluorophenyl)methyl]oxy}phenyl)methyl]-1,3-thiazole-4-carboxylate]"
